Experimental data: the supplement of paper PMC10307832

Columns and labels:
Test in all cases: relative viability (nuclei count vs DMSO), 5 days (fraction); higher = more cells survive
[1] = compound: CN1CCN(CC1)C2=CC(=C(C=C2)NC3=NC=C4C(=N3)N(C5=CC=CC=C5C(=O)N4C)C)OC [XMD8-85] + Cc1nc(Nc2ncc(C(=O)Nc3c(C)cccc3Cl)s2)cc(N2CCN(CCO)CC2)n1 [Dasatinib] (partner 0.075 µM)
Procedure, shortened: (§1)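 The day after seeding in 1536-well plates, lung cancer cell lines were treated by pin tool with a single drug, or with a fixed anchor-drug dose together with five library-drug doses (not always all listed) in √10 steps. After 5 days, a combined fix-and-stain solution (final 0.05% Triton X-100, 1% formaldehyde, 1 ug/ml Hoechst) was added. Nuclei counted on 4× images gave relative viability as treated counts over vehicle counts, reported as the median of duplicate plates.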

[2] = compound: O=C(O)C(Cc1ccccc1[N+](=O)[O-])=NNc1nc(-c2ccc(Cl)c(Cl)c2)cs1 (mixture of isomers) [4EGI-1] + CC(=O)Nc1cccc(-n2c(=O)n(C3CC3)c(=O)c3c(Nc4ccc(I)cc4F)n(C)c(=O)c(C)c32)c1 [Trametinib] (partner 0.02 µM)
Procedure, shortened: as §1

[3] = compound: O=C(O)C(Cc1ccccc1[N+](=O)[O-])=NNc1nc(-c2ccc(Cl)c(Cl)c2)cs1 (mixture of isomers) [4EGI-1] + COc1cc2c(Oc3ccc(NC(=O)C4(C(=O)Nc5ccc(F)cc5)CC4)cc3F)ccnc2cc1OCCCN1CCOCC1 [Foretinib] (partner 0.25 µM)
Procedure, shortened: as §1

[4] = compound: O=C(O)C(Cc1ccccc1[N+](=O)[O-])=NNc1nc(-c2ccc(Cl)c(Cl)c2)cs1 (mixture of isomers) [4EGI-1] + CS(=O)(=O)N1CCN(Cc2cc3nc(-c4cccc5[nH]ncc45)nc(N4CCOCC4)c3s2)CC1 [Pictilisib] (partner 1 µM)
Procedure, shortened: as §1

Cell Line	relative viability ([1]; first compound 0.08 µM)	relative viability ([1]; first compound 0.253 µM)	relative viability ([1]; first compound 0.8 µM)	relative viability ([1]; first compound 2.53 µM)	relative viability ([1]; first compound 8 µM)	relative viability ([2]; first compound 0.5 µM)	relative viability ([2]; first compound 1.581 µM)	relative viability ([2]; first compound 5 µM)	relative viability ([2]; first compound 15.81 µM)	relative viability ([2]; first compound 50 µM)	relative viability ([3]; first compound 0.5 µM)	relative viability ([3]; first compound 1.581 µM)	relative viability ([3]; first compound 5 µM)	relative viability ([3]; first compound 15.81 µM)	relative viability ([3]; first compound 50 µM)	relative viability ([4]; first compound 0.5 µM)	relative viability ([4]; first compound 1.581 µM)	relative viability ([4]; first compound 5 µM)	relative viability ([4]; first compound 15.81 µM)	relative viability ([4]; first compound 50 µM)
LXF-289	0.214	0.23	0.208	0.243	0.2	0.716	0.669	0.61	0.622	0.583	0.992	0.944	1	0.943	0.771	0.846	0.731	0.793	0.745	0.516
LK-2	–	0.305	0.262	0.261	0.222	0.841	0.529	0.944	0.75	0.609	1.23	–	1.36	1.42	0.929	0.621	–	0.696	0.64	0.541
H3255	0.45	0.325	0.353	0.333	0.335	0.679	–	0.614	–	0.523	0.982	0.788	0.907	0.775	0.823	0.578	0.431	0.516	0.361	0.453
NCI-H2087	0.953	0.802	0.959	0.79	0.472	0.212	0.2	0.234	0.2	0.126	1.23	1.09	1.39	0.855	0.29	1.02	0.813	0.888	0.626	0.386
EMC-BAC-2	0.309	0.341	0.337	0.347	0.39	0.989	–	0.928	0.878	0.652	1.2	0.907	1.04	0.936	0.984	0.642	0.492	0.579	0.514	0.502
NCI-H2126	0.601	0.625	0.613	0.562	0.417	0.552	0.553	0.506	0.463	0.384	1.34	1.55	1.28	1.07	0.785	0.525	0.455	0.581	0.445	0.42
NCI-H441	0.42	0.576	0.728	0.715	0.516	0.613	0.471	0.449	0.428	0.127	0.909	0.929	1.01	0.882	0.447	0.517	0.414	0.455	0.447	0.19
HCC-366	0.552	0.828	0.642	0.74	0.601	0.454	0.272	0.429	0.262	0.0891	0.972	0.701	0.905	0.985	0.308	0.222	–	0.119	0.0976	0.0789
NCI-H520	0.199	0.208	0.182	0.216	0.159	0.947	0.83	0.749	0.724	0.145	0.89	0.812	0.937	0.875	0.638	0.332	0.315	0.378	0.367	0.162
BEN	0.322	0.332	0.38	0.27	0.301	1.32	1.05	1.18	0.976	0.901	0.694	0.474	0.781	0.753	0.524	0.594	0.656	0.667	0.51	0.46
HARA	0.268	0.314	0.281	0.261	0.238	0.882	0.632	0.944	0.539	0.211	0.979	0.806	0.965	0.76	0.175	0.48	0.428	0.46	0.375	0.266
NCI-H2085	0.275	0.265	0.235	0.203	0.197	0.553	0.594	0.53	0.355	0.364	0.826	1.02	1.07	0.814	0.541	0.538	0.513	0.52	0.507	0.439
NCI-H838	0.397	0.277	0.281	0.28	0.191	0.694	0.483	0.512	0.506	0.141	1.03	–	1.13	1.04	0.369	0.527	–	0.435	0.362	0.173
NCI-H647	0.197	0.141	0.16	0.196	0.122	0.585	0.493	0.475	0.384	0.129	1.44	–	1.18	1.24	0.66	0.437	–	0.432	0.401	0.27
NCI-H1651	0.46	0.334	0.511	0.387	0.307	0.914	0.775	0.863	0.796	0.831	0.893	0.608	0.818	0.729	0.784	0.627	0.632	0.576	0.508	0.21
NCI-H322M	0.246	0.249	0.289	0.232	0.19	0.525	–	0.476	0.514	0.452	1.03	–	1.13	0.816	0.342	0.56	0.467	0.527	0.443	0.5
LU99A	0.477	0.675	0.61	0.688	0.388	0.516	0.436	0.583	0.538	0.307	0.817	0.605	0.856	0.616	0.551	0.375	–	0.346	0.326	0.247

Cell Line	relative viability ([1]; first compound 0.08 µM)	relative viability ([1]; first compound 0.253 µM)	relative viability ([1]; first compound 0.8 µM)	relative viability ([1]; first compound 2.53 µM)	relative viability ([1]; first compound 8 µM)	relative viability ([2]; first compound 0.5 µM)	relative viability ([2]; first compound 1.581 µM)	relative viability ([2]; first compound 5 µM)	relative viability ([2]; first compound 15.81 µM)	relative viability ([2]; first compound 50 µM)	relative viability ([3]; first compound 0.5 µM)	relative viability ([3]; first compound 1.581 µM)	relative viability ([3]; first compound 5 µM)	relative viability ([3]; first compound 15.81 µM)	relative viability ([3]; first compound 50 µM)	relative viability ([4]; first compound 0.5 µM)	relative viability ([4]; first compound 1.581 µM)	relative viability ([4]; first compound 5 µM)	relative viability ([4]; first compound 15.81 µM)	relative viability ([4]; first compound 50 µM)
PC-14	0.229	0.271	0.275	0.249	0.115	1.01	–	0.786	0.561	0.0572	1.01	0.799	1.09	–	0.879	0.879	0.464	0.602	–	0.704
SK-MES-1	0.296	0.366	0.44	–	0.255	0.582	0.559	0.568	0.541	0.418	1.04	0.955	1.03	0.521	0.824	0.458	0.349	0.338	0.303	0.347
NCI-H358	0.167	0.173	0.169	0.207	0.18	0.154	0.132	0.151	0.114	0.123	0.739	0.657	0.84	0.515	0.11	0.333	0.368	0.346	0.259	0.223
NCI-H2347	0.304	0.332	0.289	0.313	0.489	0.304	0.27	0.309	0.298	0.302	0.989	0.835	1.11	0.806	0.933	0.469	0.488	0.579	0.738	0.361
NCI-H1395	0.438	0.414	0.42	0.428	0.309	1.34	–	1.06	1.1	0.7	1.15	0.86	1.04	0.986	0.589	0.638	–	0.735	0.567	0.346
SK-LU-1	0.135	0.183	0.208	0.172	0.179	0.5	0.527	0.538	0.474	0.326	0.956	0.829	0.841	0.746	0.284	0.628	0.648	0.618	0.541	0.416
NCI-H650	0.446	0.51	0.437	0.418	0.304	1.07	–	1.02	0.984	0.833	1.13	–	1	0.958	0.897	1.13	–	1.09	0.969	0.723
NCI-H1437	0.372	0.364	0.398	0.394	0.282	0.608	0.537	0.549	0.337	0.207	1.25	1.12	1.24	1.04	0.521	0.532	0.478	0.533	0.256	0.126
NCI-H596	0.599	0.541	0.553	0.556	0.545	1.09	0.83	0.918	0.661	0.545	0.856	0.644	0.796	0.757	0.75	0.439	0.394	0.394	0.4	0.352
NCI-H661	0.81	0.888	0.856	0.834	0.455	0.653	0.524	0.572	0.439	0.29	0.999	0.94	0.994	0.714	0.313	0.368	0.344	0.391	0.336	0.231
PC-3 [JPC-3]	0.889	0.932	0.939	1.14	0.997	0.82	–	0.621	0.399	0.47	1.09	0.984	0.967	–	0.463	0.772	0.826	0.706	–	0.458
RERF-LC-KJ	0.939	0.743	0.816	0.858	0.574	0.887	0.679	0.851	0.726	0.516	0.883	0.77	0.857	0.695	0.734	0.636	0.42	0.468	0.357	0.581
NCI-H2170	0.574	0.562	0.526	0.564	0.548	0.956	0.773	0.876	0.866	0.645	0.951	0.958	0.74	1.01	0.582	0.316	0.306	0.319	0.253	0.22
NCI-H1993	0.522	0.518	0.648	0.744	0.744	0.654	0.49	0.504	0.607	0.432	0.812	0.7	0.708	0.684	0.614	0.919	0.761	0.781	0.736	0.862
A-427	0.734	0.717	0.749	0.797	0.618	0.891	–	0.774	0.742	0.384	1.16	0.944	0.983	0.867	0.646	0.855	0.409	0.705	0.589	0.364
NCI-H1650	0.34	0.313	0.365	0.271	0.192	0.658	–	0.643	0.275	0.182	1.37	–	1.04	0.749	0.405	0.671	–	0.659	0.351	0.235
